Results reported in patent US20150265644A1, “THERAPEUTIC METHODS AND COMPOSITIONS FOR TREATING DIABETES UTILIZING DITERPENOID COMPOUNDS” (Orient Europharma Co., Ltd., priority 2014, published 2015).

Tests used:
[1] = test system: C2C12 skeletal muscle cells; assay: Glycogen content assay in differentiated C2C12 myotubes; assay type: cell-based; conditions: 30 minutes
Method: The C2C12 skeletal muscle cells were cultured in Dulbecco's modified Eagle's medium (DMEM; Gibco/Invitrogen, Carlsbad, Calif.), and the human hepatocellular carcinoma cell line, Hl-ep3B, was cultured in Roswell Park Memorial Institute medium 1640 (RPMI 1640 medium; Gibco/Invitrogen, Carlsbad, Calif.). Cells were cultured at 37° C. in the humidified incubator supplied with 5% CO2. Culture mediums were supplemented with 4.5 mgmL^−1 glucose, penicillin 100 IUmL^−1, streptomycin 100 μgmL^−1 and 10% fetal bovine serum (Gibco/Invitrogen, Carlsbad, Calif.). Only C2C12 cells were then switched to 2% horse serum for 3 days after reaching the 70% confluence. Myotubes formation was achieved after 4 days of incubation, and the cells were used for subsequent experiments. Culture mediums were replaced by serum free DMEM or RPMI for 24 h before experiments (see e.g., procedure described in Sultan et al., 2006).
C2C12 and Hep3B cells were treated with 1 nM insulin, 100 μM metformin, and the assigned concentration of borapetoside A for 30 minutes. To develop the insulin resistance state of cells, C2C12 cells were incubated with IL-6 at 20 ngmL^−1 for 1 hour. Later, the cells were treated with 1 nM insulin, 100 μM metformin, and the assigned concentration of borapetoside A for 30 minutes. After the assigned treatment, cells were washed twice with phosphate buffered saline (PBS). Glycogen content was measured as previously described, with some modifications (see e.g., Savage et al., 2008). The protein concentrations of the cell lysates were determined by using Pierce BCA Protein Assay Kit (Thermo-Scientific, Rockford, Ill.). The glycogen content of each sample was normalized by total protein.

[2] = Plasma glucose after single intraperitoneal injection in mice; assay type: in vivo; conditions: 60 min; for dose giving significant decrease of plasma glucose level: single i.p. dose; for plasma glucose level: 0.1-10 mgkg^−1 i.p., dose-dependent
Method: The 4-week-old male ICR mice were purchased from the Animal Center of the College of Medicine, National Taiwan University (Taipei, Taiwan) with delicate humane care. This animal study was conducted by following the University ethical guidelines and the ‘Guide for the Care and Use of Laboratory Animals’ published by the US National Institutes of Health (NIH publication no. 85-23, revised 1996). The animal experiments were approved by the Institutional Animal Care and Use Committee (IACUC) of the National Taiwan University (IACUC No. 20110073). Animals were housed in a room at the constant temperature, 22±1° C., with 12 hours light and dark cycles.
After three days of acclimatization, the mice had free access to a standard rodent chow (normal mice), a standard rodent chow after single 250 mgkg^−1 streptozotocin (STZ) intraperitoneal injection (TIDM mice), and a fat-rich chow diet and fructose-sweetened water (T2DM mice) for 4 weeks. The induction of Type 1 DM was assessed and confirmed when the mice had plasma glucose levels ≧350 mgdL^−1, accompanied with polyuria, hyperphagia and decreased body weight. The induction Type 2 DM in the mice was assessed by measuring fasting plasma glucose levels and confirmed when plasma glucose level was ≧150 mgdL^−1 after the 4-week induction. The animals were assigned randomly into three groups, with seven animals in each group. In group I, the mice were treated with vehicle, 2% DMSO in normal saline, as the negative control. In group II, the mice were intraperitoneally treated with borapetoside A (0.1-10 mgkg^−1). In […], the mice received intraperitoneally metformin (300 mgkg^−1; Sigma Chemical Co., St. Louis, Mo., U.S.A.) or insulin (0.5 IUkg^−1; Insulin Actrapid® HM; Novo Nordisk, Denmark). In the acute study, mice under anesthesia received a single intraperitoneal administration of borapetoside A, negative control, or positive control. In the subacute study, mice received intraperitoneal administrations of borapetoside A, vehicle, or insulin twice a day for seven days.
Blood samples were collected from the orbital vascular plexus of the mice under anesthesia. Blood samples were then centrifuged at 13000 rpm for 5 min, and the plasma samples were collected and kept on ice prior to the assay. The plasma glucose concentration was measured by Glucose Kit Reagent (Biosystems S.A., Barcelona, Spain) following the manufacturer's instructions, and the insulin levels were estimated using mouse insulin ELISA kit (Mercodia AB, Uppsala, Sweden).

soleus muscle = assay: Glycogen content in soleus muscle in vivo; parameters: species or system mice; conditions: 10 mgkg^−1 i.p., 60 minutes
Method: (§1) The mice were injected with borapetoside A (10 mgkg^−1, interperitoneal) for 60 minutes or insulin (0.5 IUkg^−1, interperitoneal) for 30 minutes. After the treatment, the anesthetic mice were sacrificed by cervical dislocation to collect the soleus muscle and liver. About 40 mg of each sample was dissolved in 1 mol/L KOH at 75° C. for 30 min. The dissolved homogenate was neutralized by glacial acetic acid and then incubated overnight in acetate buffer (0.3 mol/L sodium acetate, pH 4.8) containing amyloglucosidase (Sigma, St. Louis, Mo.). The mixture was then neutralized with 1 mol/L NaOH to stop the reaction. The glycogen contents in the tissue samples were determined as μg of glucose per mg of tissue (wet weight).

liver = assay: Glycogen content in liver in vivo; parameters: species or system mice; conditions: 10 mgkg^−1 i.p., 60 minutes
Method: as §1

PEPCK = assay: Western blot of liver, PEPCK expression; assay type: in vivo; conditions: mice with type 1 DM, 10 mgkg^−1 i.p. twice a day for 7 days
Method: (§2) After three days of acclimatization, the mice had free access to a standard rodent chow (normal mice), a standard rodent chow after single 250 mgkg^−1 streptozotocin (STZ) intraperitoneal injection (TIDM mice), and a fat-rich chow diet and fructose-sweetened water (T2DM mice) for 4 weeks. The induction of Type 1 DM was assessed and confirmed when the mice had plasma glucose levels ≧350 mgdL^−1, accompanied with polyuria, hyperphagia and decreased body weight. The induction Type 2 DM in the mice was assessed by measuring fasting plasma glucose levels and confirmed when plasma glucose level was ≧150 mgdL^−1 after the 4-week induction. […]
(§3) Western blot analysis was carried out by known methods with a slight modification. […] After centrifuging the homogenates at 10,000 g for 30 minutes, the protein concentrations were determined by using a BCA Protein Assay Kit (Pierce Biotechnology, Rockford, Ill.). […] The membranes were analysed by using the antibodies against phospho-insulin receptor β (IRβ) (Tyr^1345), phospho-Akt (Ser^473), phosphor-AS160 (Thr^642), AS160 (Cell Signaling Technology, Beverly, Mass.), IRβ, Akt, β-Actin (Santa Cruz Biotechnology, Santa Cruz, Calif.), GLUT2 (Abcam, Cambridge, UK), and PEPCK (a gift from Professor D K Granner), respectively. […] The intensity of each band was quantified with ImageQuant.

phospho-Akt (Ser^473) = assay: Western blot of liver, phospho-Akt; assay type: in vivo; conditions: mice with type 1 DM, 10 mgkg^−1 i.p. twice a day for 7 days
Method: as §2, §3

[3] = test system: phospho-insulin receptor β (IRβ) (Tyr^1345); assay: Western blot of liver, phospho-insulin receptor; assay type: in vivo; conditions: mice with type 1 DM, 10 mgkg^−1 i.p. twice a day for 7 days
Method: as §2, §3

For `C[C@@]12C[C@@H](c3ccoc3)OC(=O)[C@@H]1C[C@@H]1OC(=O)[C@@]3(O)[C@@H](O[C@@H]4O[C@H](CO)[C@@H](O)[C@H](O)[C@H]4O)CC[C@@H]2[C@@]13C` [borapetoside A], the “fold increase of glycogen” value ([1]; 10^−6 mol/L) was 1.49±0.15 fold, the “fold increase of glycogen” value ([1]; 10^−7 mol/L) was 1.28±0.04 fold and the “fold increase of glycogen” value [1] was 1.53±0.10 fold. For the same compound, the “dose giving significant decrease of plasma glucose level” value ([2]; mice with type 2 DM) was “higher than 0.3 mgkg^−1”, the plasma glucose level ([2]; normal mice) was “lowered” and the “dose giving significant decrease of plasma glucose level” value ([2]; normal mice) was no less than 1 mgkg^−1. The plasma glucose level ([2]; type 1 DM mice) was “lowered”, the plasma glucose level ([2]; type 2 DM mice) was “lowered” and the “glycogen content in soleus muscle, % of vehicle control” value (shortened to “glycogen content in soleus muscle, %”) (soleus muscle; mice with type 1 DM) was 155.6±8.6%. For the same compound, the “glycogen content in soleus muscle, %” value (soleus muscle; mice with type 2 DM) was 171.8±12.0%, the “glycogen content in soleus muscle, %” value (soleus muscle; normal mice) was 116.5±4.2% and the “glycogen content in liver, % of vehicle control” value (“glycogen content in liver, %” below) (liver; mice with type 1 DM) was 196.9±15.6%. The “glycogen content in liver, %” value (liver; mice with type 2 DM) was 146.1±12.0%, the “glycogen content in liver, %” value (liver; normal mice) was 257.8±15.8% and the “PEPCK expression in liver” value (PEPCK) was “significant decrease”. The “phosphorylated Akt in liver” value (phospho-Akt (Ser^473)) was “increased” and the “phosphorylated IR in liver” value [3] was “increased”.
